Test system: α-MyHC protein levels
Experiment: α-MyHC cytoblot assay in neonatal rat ventricular myocytes (NRVM)
Type: cell-based
Conditions: 10 mM Cpd; NRVM, 3 days
Protocol: FIG. 1 Concentration-dependent effect of Compound 1 on α-MyHC protein levels in the cytoblot assay. NRVM are cultured for 3 days in serum-free medium in the presence of differing amounts of Compound 1. At the end of the culture period, NRVM are fixed and analyzed for α-MyHC protein levels using the BA-G5 monoclonal antibody specific for α-MyHC. Results are collected as RLU using a Packard Fusion Plate reader, and normalized to the signal from samples cultured in the absence of compound (control, set to 100%).
Preparation and culture of neonatal rat ventricular myocytes (NRVM) was performed by removing hearts from 1-3 day old rat neonatal pups, along with the atria and lungs. The ventricles were cut into smaller pieces and digested 3 times with collagenase for 20-30 min at 37° C. The myocytes were then separated from other cell types using a Percoll gradient. The myocyte layer was collected, washed 2 times, and plated on tissue culture grade 10 cm Petri dishes for 1-2 hrs. The non-adherent cells (myocytes) were removed and plated in Costar clear view 96 well plates coated with 0.2% gelatin for at least 2 hrs. The gelatin solution was removed, and the myocytes were resuspended in DMEM high glucose media (Mediatech) containing 10% charcoal/dextran treated FBS (Hyclone) and 1% Penicillin-Streptomycin-Glutamine (PSG, Gibco). Ten thousand NRVM were plated per well in a 100 μl volume, and incubated overnight at 37° C. in 5% CO2 in air. The following day, the media was replaced with 100 μl of serum-free DMEM high glucose medium supplemented with PSG and 0.3% Nutridoma-SP (Roche).
Compounds were reconstituted in DMSO at 30 mM, and aliquots were stored at −20° C. A 1:1000 dilution was prepared in serum-free DMEM medium supplemented with PSG and 0.3% Nutridoma, and sonicated for 5 min at room temperature. After sonication, additional 3 fold dilutions were prepared in the same medium. Diluted compound was then added to the NRVM cultures in a volume of 100 μl. A 100 mM thyroid hormone stock solution (T3, Calbiochem) was prepared in 100 mM NaOH and added at a final concentration of 3 nM in DMEM medium supplemented with PSG and 0.3% Nutridoma-SP (Roche). NRVM were cultured for 3 days before detection of α-myosin heavy chain (α-MyHC) protein levels in the cytoblot assay.
For the α-MyHC cytoblot assay, NRVM cultures were analyzed for α-MyHC protein levels after 3 days of incubation. NRVM were washed 2 times with PBS, fixed with methanol for 30 min at 4° C., and washed an additional 2 times with PBS. Blocking solution consisting of PBS with 1% bovine serum albumin (BSA, Fisher Biotech) was added for 1 hr at room temperature before addition of a saturating amount of supernatant containing an α-MyHC specific antibody for 60 min at room temperature (BA-G5 hybridoma, ATTC). Two washes were performed with PBS/1% BSA, and a 1:500 dilution of HRP-goat anti-mouse IgG (Southern Biotech) diluted in PBS/1% BSA was added for 60 min at room temperature. Excess antibody was removed with 3 PBS washes, and a chemiluminescent substrate was added (Pierce SuperSignal West Pico Chemiluminscent Substrate) for 5 min before quantitation on a Packard Fusion Plate Reader.
As shown above in Table 1, Compound 1 increased α-MyHC protein levels as determined by an α-MyHC cytoblot assay. Compound 1 was added to NRVM at concentration ranging from 3 nM to 30 μM. After 3 days of incubation with NRVM, α-MyHC protein levels were detected in the cytoblot assay and quantitated (FIG. 1). […] An increase in α-MyHC protein levels was first detected beginning at 30 nM, with a maximal response observed at 3 μM. In six independent experiments, the concentration of Compound 1 that gave a half-maximal response was on average 60 nM.

| SMILES | % increase of a-MyHC over baseline at 10 mM Cpd [%] |
| --- | --- |
| CC(=O)C1=C(C)NC(SCC(=O)c2cccc([N+](=O)[O-])c2)=C(C#N)C1c1cccc(C)c1 (racemic) [Compound 2] | 95 |
| CC(=O)C1=C(C)NC(SCC(=O)c2cc(Cl)ccc2Cl)=C(C#N)C1c1ccccc1Cl (racemic) [Compound 3] | 314 |
| CC(=O)C1=C(C)NC(SCC(=O)c2ccccc2Cl)=C(C#N)C1c1ccccc1Cl (racemic) [Compound 4] | 135 |
| CC(=O)C1=C(C)NC(SCC(=O)c2ccc(Cl)cc2)=C(C#N)C1c1ccccc1Cl (racemic) [Compound 5] | 52 |
| CC(=O)C1=C(C)NC(SCC(=O)c2ccc(Br)cc2)=C(C#N)C1c1ccccc1Cl (racemic) [Compound 6] | 53 |
| CC(=O)C1=C(C)NC(SCC(=O)c2ccc(Cl)c(Cl)c2)=C(C#N)C1c1ccc(Cl)cc1 (racemic) [Compound 7] | 43 |
| CC(=O)C1=C(C)NC(SCC(=O)c2ccc(Cl)cc2Cl)=C(C#N)C1c1ccc(Cl)cc1 (racemic) [Compound 8] | 29 |
| CC(=O)C1=C(C)NC(SCC(=O)c2ccccc2Cl)=C(C#N)C1c1ccc(Cl)cc1 (racemic) [Compound 9] | 80 |
| CC(=O)C1=C(C)NC(SCC(=O)c2ccc(Cl)c(Cl)c2)=C(C#N)C1c1ccc(F)cc1 (racemic) [Compound 10] | 88 |
| CC(=O)C1=C(C)NC(SCC(=O)c2ccc(Cl)cc2Cl)=C(C#N)C1c1ccc(F)cc1 (racemic) [Compound 11] | 51 |
| CC(=O)C1=C(C)NC(SCC(=O)c2ccc(Br)cc2)=C(C#N)C1c1cccc([N+](=O)[O-])c1 (racemic) [Compound 12] | 34 |
| CC(=O)C1=C(C)NC(SCC(=O)c2ccc(Cl)c(Cl)c2)=C(C#N)C1c1ccccc1 (racemic) [Compound 13] | 95 |
| CC(=O)C1=C(C)NC(SCC(=O)c2ccc([N+](=O)[O-])cc2)=C(C#N)C1c1ccccc1Cl (racemic) [Compound 14] | 24 |
| CC(=O)C1=C(C)NC(SCC(=O)c2ccc(Cl)cc2Cl)=C(C#N)C1c1ccccc1 (racemic) [Compound 15] | 81 |
| CC(=O)C1=C(C)NC(SCC(=O)c2cccc(Br)c2)=C(C#N)C1c1ccccc1 (racemic) [Compound 16] | 143 |
| CC(=O)C1=C(C)NC(SCC(=O)c2ccc(Cl)cc2)=C(C#N)C1c1ccccc1 (racemic) [Compound 17] | 29 |
| CC(=O)C1=C(C)NC(SCC(=O)c2ccc(F)cc2)=C(C#N)C1c1ccccc1 (racemic) [Compound 18] | 37 |
| CC(=O)C1=C(C)NC(SCC(=O)c2ccccc2)=C(C#N)C1c1ccccc1 (racemic) [Compound 19] | 71 |
| CC(=O)C1=C(C)NC(SCC(=O)c2ccc(Cl)c(Cl)c2)=C(C#N)C1c1cccc(C)c1 (racemic) [Compound 20] | 79 |
| CC(=O)C1=C(C)NC(SCC(=O)c2ccc(Cl)c(Cl)c2)=C(C#N)C1c1ccccc1Cl (racemic) [Compound 21] | 126 |
| CC(=O)C1=C(C)NC(SCC(=O)c2ccc(Cl)cc2Cl)=C(C#N)C1c1ccccc1Cl (racemic) [Compound 22] | 81 |
| CC(=O)C1=C(C)NC(SCC(=O)c2cc(Cl)ccc2Cl)=C(C#N)C1c1ccc(Br)cc1 (racemic) [Compound 23] | 70 |
| CCc1ccc(C2C(C#N)=C(SCC(=O)c3cccc([N+](=O)[O-])c3)NC(C)=C2C(C)=O)cc1 (racemic) [Compound 24] | 130 |
| CC(=O)C1=C(C)NC(SCC(=O)c2cccc([N+](=O)[O-])c2)=C(C#N)C1c1ccc(Cl)cc1 (racemic) [Compound 25] | 139 |
